From patent publication US20260248947A1, “Methods of Treating Cancer Using Anti-HER2 Antibody-Drug Conjugates and HER2 Kinase Inhibitors” (Seagen Inc., priority 2023, published 2026) come the findings set out here.

Type in all cases: in vivo, Mice
Assay [1] concerns gastric cancer PDX models. In words: Tumor volume in gastric cancer PDX models with variable HER2 expression. To be noted: in a majority of the six PDX models; DV 2 mg/kg intravenous single dose. The source says: (§1) FIGS. […] show the effects of combining DV and tucatinib vs. DV as a single agent in gastric cancer patient-derived xenograft (PDX) models with varying HER2 expression levels: GA13745 (IHC 1+; FIGS. 12A, 12B), GA6821 (IHC 1+; FIGS. 12C, 12D), CTG-0148 (IHC 1+; FIGS. 12E, 12F), CTG-3036 (IHC 2+; FIGS. 12G, 12H), CTG-3033 (IHC 3+; FIGS. 12I, 12J), and GA3102 (IHC 3+; FIGS. 12K, 12L). Treatment with T-DXd, a HER2-directed ADC, was also included in the study. Tumor volume data shown as mean±SEM. For each model, tumor growth was evaluated using a normalized area under the curve (AUC) metric (see, Guo, S. et al. (2019) BMC Cancer 19, 718) (FIGS. 12A, 12C, 12E, 12G, 12I, 12K). AUC was calculated for each model for the duration of the experiment, then compared by one-way ANOVA followed by Tukey's post-hoc test. The box-and-whisker plots represent the median and range for each treatment group (FIGS. 12B, 12D, 12F, 12H, 12J, 12L). […]
(§2) DV and tucatinib were tested as monotherapies and in combination in PDX models with varying HER2 expression levels. […] Mice (n=10/group) were treated with tucatinib (50 mg/kg oral, twice daily), DV (2 mg/kg, intravenous, single dose), a combination of tucatinib and DV, or T-DXd (2 mg/kg, intravenous, single dose), and tumor volume was measured over time.

The test system of assay [2] is GA3102 (IHC 3+) gastric cancer PDX. In words: Tumor volume / normalized AUC in gastric cancer PDX model. The following applies: GA3102 (FIGS. 12K, 12L); tucatinib 50 mg/kg oral twice daily, DV 2 mg/kg intravenous single dose.
Excerpt: as §1, §2

The subject of assay [3] is GA6821 (IHC 1+) gastric cancer PDX. The assay is described as above. To be noted: GA6821 (FIGS. 12C, 12D); tucatinib 50 mg/kg oral twice daily, DV 2 mg/kg intravenous single dose.
Excerpt: as §1, §2

Consider disitamab vedotin [DV], for which the “anti-tumor activity of DV monotherapy” value in assay [1] was “anti-tumor activity”. Moreover, the “anti-tumor activity compared to untreated control (normalized AUC tumor growth metric)” value in assay [2] and in assay [3] was “significant anti-tumor activity” in each case.
